Measured values reported in US20220204539A1, “CD73 INHIBITORS” (BioArdis LLC, priority 2019, published 2022).

Key:
[1] = target: T1, Recombinant Human 5′-Nucleotidase (CD73) (Homo sapiens, UniProt P21589); assay: CD73 Enzyme Assay; type: biochemical; conditions: human CD73 0.5 nM, AMP 30 μM, PiColorLock phosphate detection; read-out: Potency (IC50, CD73 enzyme assay)
T1 construct: CHO derived CD73 (Trp27-Lys547), with a C-terminal 6-His tag; 6-His (C); purchased R&D 5795-EN; host or cells: CHO
T1 sequence (P21589 27-547): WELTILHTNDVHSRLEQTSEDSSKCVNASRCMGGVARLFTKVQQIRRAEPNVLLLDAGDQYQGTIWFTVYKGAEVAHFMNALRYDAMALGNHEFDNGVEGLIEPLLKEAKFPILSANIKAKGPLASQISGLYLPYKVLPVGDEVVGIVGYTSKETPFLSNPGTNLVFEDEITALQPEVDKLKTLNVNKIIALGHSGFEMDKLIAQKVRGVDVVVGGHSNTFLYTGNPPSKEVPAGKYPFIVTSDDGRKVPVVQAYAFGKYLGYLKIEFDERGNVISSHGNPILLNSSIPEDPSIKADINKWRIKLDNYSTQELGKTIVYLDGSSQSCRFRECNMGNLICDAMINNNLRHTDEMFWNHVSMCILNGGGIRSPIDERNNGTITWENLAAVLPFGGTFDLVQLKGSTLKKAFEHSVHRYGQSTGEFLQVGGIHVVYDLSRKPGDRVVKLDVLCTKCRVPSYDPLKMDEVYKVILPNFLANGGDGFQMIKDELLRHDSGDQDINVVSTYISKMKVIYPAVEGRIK
Source text: Soluble recombinant CD73 catalyzes the conversion of adenosine monophosphate (AMP) to adenosine and inorganic phosphate. The phosphate detection reagent, PiColorLock™ (Innova Bioscience, Cat #303-0125) is based on the change in absorbance of the dye malachite green in the presence of inorganic phosphate (Pi) and this property can be exploited to measure any enzyme that generates Pi. Recombinant Human 5′-Nucleotidase (CD73) (R&D #5795-EN, CHO derived CD73 (Trp27-Lys547), with a C-terminal 6-His tag) was used in the enzymatic assay. This assay was run in a 384-well plate format (Corning® NBS™ 384 well plates, Cat #3640). The basic assay procedure involves two steps: 1) Enzyme reaction: The CD73 enzyme (R&D #5795-EN) is incubated in the presence or absence of compounds. AMP (sigma, cat #01930) is added to start the […] reaction. 2) Detection step: Gold mix is added to the assay system, then stabilizers are added. After incubation the absorbance of the solution is read at OD 635 nm. The recorded OD signal is proportional to the enzyme activity.
Briefly, 25 μl human CD73 (0.5 nM final concentration) in the enzymatic buffer solutions (20 mM Tris, 25 mM NaCl, 1 mM MgCl2, pH 7.5, 0.005% Tween-20) were mixed with various concentrations of the test compound (dissolved in 100% DMSO). These solutions were incubated for 15 min at 25° C., and subsequently 25 μl AMP (30 μM final concentration) was added to start the reaction. The final reaction mixture of enzyme-substrate-compound was incubated for 20 min at 37° C. Meanwhile ‘Gold mix’ was prepared shortly before use by adding 1/100 vol. of accelerator to the PiColorLock™ Gold reagent. 12 μL/well of the ‘Gold mix’ was added to assay plate containing 50 μL enzyme reaction buffer and incubated at 25° C. for 5 min. 5 μL/well stabilizer was added to the assay plate and incubated at 25° C. for 30 min. The absorbance of the well solutions was measured at 635 nm on a Spark 10M instrument (TECAN).
The percent (%) inhibition at each concentration of a compound was calculated relative to the OD value in the Max and Min control wells contained within each assay plate. The Max control wells contained enzyme and substrate as 0% inhibition, and the M control wells only contained substrate without enzyme as 100% inhibition. The concentrations and percent inhibition values for a test compound are plotted and the concentration of the compound required to achieve 50% inhibition (IC50) was determined with a four-parameter logistic dose response equation.

[2] = target: T2, Cell surface CD73 of U87 MG human glioblastoma cells (Homo sapiens, UniProt P21589); assay: CD73 Cellular Assay; type: cell-based; conditions: 5000 cells per well, 30 μM AMP substrate, read-out: Potency (IC50, CD73 cellular assay)
T2 construct: Cell surface CD73 catalyzes the conversion of adenosine monophosphate (AMP) to adenosine and inorganic phosphate; endogenous in cells; host or cells: U87 MG human glioblastoma cells
T2 sequence (P21589 27-549): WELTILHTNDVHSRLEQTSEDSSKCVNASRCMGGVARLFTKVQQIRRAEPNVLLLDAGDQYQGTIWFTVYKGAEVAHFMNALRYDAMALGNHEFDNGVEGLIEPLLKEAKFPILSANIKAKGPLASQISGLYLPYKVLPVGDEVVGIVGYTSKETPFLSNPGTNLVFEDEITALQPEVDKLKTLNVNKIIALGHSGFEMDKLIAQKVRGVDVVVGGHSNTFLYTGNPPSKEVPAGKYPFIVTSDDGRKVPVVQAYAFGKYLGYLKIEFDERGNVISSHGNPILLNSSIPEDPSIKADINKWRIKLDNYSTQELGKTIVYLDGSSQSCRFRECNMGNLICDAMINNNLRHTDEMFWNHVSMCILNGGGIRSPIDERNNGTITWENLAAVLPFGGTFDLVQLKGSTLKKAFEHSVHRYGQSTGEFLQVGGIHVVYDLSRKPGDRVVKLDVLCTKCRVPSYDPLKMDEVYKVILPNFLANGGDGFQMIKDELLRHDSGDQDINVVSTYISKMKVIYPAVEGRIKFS
Protocol: Cell surface CD73 catalyzes the conversion of adenosine monophosphate (AMP) to adenosine and inorganic phosphate. U87 MG human glioblastoma cells express high level of CD73. Cells are treated with compounds in a 96-well assay plate and supernatants are collected into a 384-well detection plate. The concentration of inorganic phosphate (Pi) in the supernatants is determined using the phosphate detection reagent, PiColorLock™ (Innova Bioscience, Cat #303-0125) following the manufacturer's instructions.
Briefly, on the day of the assay, U87 MG cells were harvested and resuspended in assay buffer which consisted of 20 mM HEPES, pH=7.4, 137 mM NaCl, 5.4 mM KCl, 1.3 mM CaCl2, 4.2 mM NaHCO3 and 0.1% glucose. To test the effect of compounds on cellular CD73 enzymatic activity, 500 nL/well of compounds dissolved in DMSO were added to a 96-well TC-treated microplate (Corning #3599). Next, 80 μL/well of U87 MG cells in assay buffer were added to assay plate. After 30 minutes of incubation in an atmosphere of 5% CO2 at 37° C., 20 μL/well of 150 μM AMP (Adenosine 5′-monophosphate monohydrate, Sigma, Cat #01930) in assay buffer was added to assay plate. Final assay conditions consisted of 5000 cells per well in 0.5% DMSO and 30 μM AMP substrate. After 50 minutes of incubation in an atmosphere of 5% CO2 at 37° C., 50 μL/well of supernatant was transferred to the 384-well detection plate (Corning® NBS™ 384 well plates, Cat #3640). Meanwhile “Gold mix” was prepared shortly before use by adding 1/100 volume of accelerator to the PiColorLock™ Gold reagent. 12 μL/well of the “Gold mix” was added to detection plate containing 50 μL/well of supernatant and incubated at 25° C. for 5 minutes. 5 μL/well stabilizer was added to the detection plate and incubated at 25° C. for 30 minutes. The absorbance at 635 nm was measured on a Spark 10M instrument (TECAN). The percent (%) inhibition at each concentration of a compound was calculated relative to the OD value in the Max and Min control wells contained within each assay plate. The Max control wells contained cells and substrate as 0% inhibition, and the Min control wells only contained cells as 100% inhibition. The concentrations and percent inhibition values for a test compound are plotted and the concentration of a the compound required to achieve 50% inhibition (IC50) was determined with a four-parameter logistic dose response equation.

Row | Structure (SMILES) | IC50 [1] [nM] | IC50 [2] [nM]
1 | O=P(O)(O)CP(=O)(O)OC[C@H]1O[C@@H](c2cnc3c(NC4CCCC4)nc(Cl)nn23)[C@H](O)[C@@H]1O [Compound 5, (((((2R,3S,4R,1S)-5-(2-chloro-4-(cyclopentylamino)imidazo[2,1-f][1,2,4]triazin-7-yl)-3,4-dihydroxytetrahydrofuran-2-yl)methoxy)(hydroxy)phosphoryl)methyl)phosphonic acid] | < 10 | < 1
2 | O=P(O)(O)CP(=O)(O)OC[C@H]1O[C@@H](c2cnc3c(NCc4ccccc4)nc(Cl)nn23)[C@H](O)[C@@H]1O [Compound 6, (((((2R,3S,4R,1S)-5-(4-(benzylamino)-2-chloroimidazo[2,1-f][1,2,4]triazin-7-yl)-3,4-dihydroxytetrahydrofuran-2-yl)methoxy)(hydroxy)phosphoryl)methyl)phosphonic Acid] | < 10 | < 1
3 | CN(c1nc(Cl)nn2c([C@@H]3O[C@H](COP(=O)(O)CP(=O)(O)O)[C@@H](O)[C@H]3O)cnc12)C1CCCC1 [Compound 8, (((((2R,3S,4R,1S)-5-(2-chloro-4-(cyclopentyl(methyl)amino)imidazo[2,1-f][1,2,4]triazin-7-yl)-3,4-dihydroxytetrahydrofuran-2-yl)methoxy)(hydroxy)phosphoryl)methyl)phosphonic acid] | < 10 | < 1
4 | O=P(O)(O)CP(=O)(O)OC[C@H]1O[C@@H](c2cnc3c(NC4CCc5ccccc54)nc(Cl)nn23)[C@H](O)[C@@H]1O (stereo partly drawn) [Compound 9, (((((2R,3S,4R,1S)-5-(2-chloro-4-((2,3-dihydro-1H-inden-1-yl)amino)imidazo[2,1-f][1,2,4]triazin-7-yl)-3,4-dihydroxytetrahydrofuran-2-yl)methoxy)(hydroxy)phosphoryl)methy)phosphonic acid] | < 10 | < 1
5 | O=P(O)(O)CP(=O)(O)OC[C@H]1O[C@@H](c2cnc3c(N4CC5CCCC5C4)nc(Cl)nn23)[C@H](O)[C@@H]1O (stereo partly drawn) [Compound 10, (((((2R,3S,4R,1S)-5-(2-chloro-4-(hexahydrocyclopenta[c]pyrrol-2(1H)-yl)imidazo[2,1-f][1,2,4]triazin-7-yl)-3,4-dihydroxytetrahydrofuran-2-yl)methoxy)(hydroxy)phosphoryl)methy)phosphonic acid] | < 10 | < 1
6 | O=P(O)(O)CP(=O)(O)OC[C@H]1O[C@@H](c2cnc3c(NCc4ccccc4Cl)nc(Cl)nn23)[C@H](O)[C@@H]1O [Compound 11, [({[(2R,3S,4R,5S)-5-(2-chloro-4-{[(2-chlorophenyl)methyl]amino}imidazo[2,1-f][1,2,4]triazin-7-yl)-3,4-dihydroxyoxolan-2-yl]methoxy}(hydroxy)phosphoryl)methyl]phosphonic acid] | < 10 | < 1
7 | O=P(O)(O)CP(=O)(O)OC[C@H]1O[C@@H](c2cnc3c(NCC4CCOC4)nc(Cl)nn23)[C@H](O)[C@@H]1O (stereo partly drawn) [Compound 12, (((((2R,3S,4R,1S)-5-(2-chloro-4-(((tetrahydrofuran-3-yl)methyl)amino)imidazo[2,1-f][1,2,4]triazin-7-yl)-3,4-dihydroxytetrahydrofuran-2-yl)methoxy)(hydroxy)phosphoryl)methyl) phosphonic Acid] | < 10 | < 1
8 | O=P(O)(O)CP(=O)(O)OC[C@H]1O[C@@H](c2cnc3c(NC4CCOC4)nc(Cl)nn23)[C@H](O)[C@@H]1O (stereo partly drawn) [Compound 14, [({[(2R,3S,4R,5S)-5-[2-chloro-4-(oxolan-3-ylamino)imidazo[2,1-f][1,2,4]triazin-7-yl]-3,4-dihydroxyoxolan-2-yl]methoxy}(hydroxy)phosphoryl)methyl]phosphonic acid] | < 10 | < 1
9 | O=P(O)(O)CP(=O)(O)OC[C@H]1O[C@@H](c2coc3c(NCc4ccccc4)nc(Cl)nc23)[C@H](O)[C@@H]1O [Compound 15, [({[(2R,3S,4R,5S)-5-[4-(benzylamino)-2-chlorofuro[3,2-d]pyrimidin-7-yl]-3,4-dihydroxyoxolan-2-yl]methoxy}(hydroxy)phosphoryl)methyl]phosphonic Acid] | < 10 | < 1
10 | O=P(O)(O)CP(=O)(O)OC[C@H]1O[C@@H](c2ccc3c(NCc4ccccc4)ncnn23)[C@H](O)[C@@H]1O [Compound 16, (((((2R,3S,4R,1S)-5-(4-(benzylamino)pyrrolo[2,1-f][1,2,4]triazin-7-yl)-3,4-dihydroxytetrahydrofuran-2-yl)methoxy)(hydroxy)phosphoryl)methyl)phosphonic acid] | 10 to 99 | 1 to 9.9
